{
  "source": "paper PMC8800111",
  "about": "(The Journal of Biological Chemistry, 2021)",
  "format_in_all_cases": "cell-based",
  "key": {"[1]": {"biological_target": "proteins of U3A human fibrosarcoma cells (4462 proteins detected) (Homo sapiens, UniProt O60462)", "details": "protein NRP2; soluble abundance after heat, U3A cells"}, "[2]": {"biological_target": "proteins of U3A human fibrosarcoma cells (4462 proteins detected) (Homo sapiens, UniProt P07602)", "details": "protein PSAP; soluble abundance after heat, U3A cells"}, "[3]": {"biological_target": "proteins of U3A human fibrosarcoma cells (4462 proteins detected) (Homo sapiens, UniProt Q9H900)", "details": "protein ZWILCH; U3A cells"}, "[4]": {"biological_target": "proteins of U3A human fibrosarcoma cells (4462 proteins detected) (Homo sapiens, UniProt Q9NYJ1)", "details": "protein COA4; U3A cells"}, "[5]": {"biological_target": "proteins of U3A human fibrosarcoma cells (4462 proteins detected) (Homo sapiens, UniProt Q9NVA2)", "sequence (Q9NVA2 whole entry)": "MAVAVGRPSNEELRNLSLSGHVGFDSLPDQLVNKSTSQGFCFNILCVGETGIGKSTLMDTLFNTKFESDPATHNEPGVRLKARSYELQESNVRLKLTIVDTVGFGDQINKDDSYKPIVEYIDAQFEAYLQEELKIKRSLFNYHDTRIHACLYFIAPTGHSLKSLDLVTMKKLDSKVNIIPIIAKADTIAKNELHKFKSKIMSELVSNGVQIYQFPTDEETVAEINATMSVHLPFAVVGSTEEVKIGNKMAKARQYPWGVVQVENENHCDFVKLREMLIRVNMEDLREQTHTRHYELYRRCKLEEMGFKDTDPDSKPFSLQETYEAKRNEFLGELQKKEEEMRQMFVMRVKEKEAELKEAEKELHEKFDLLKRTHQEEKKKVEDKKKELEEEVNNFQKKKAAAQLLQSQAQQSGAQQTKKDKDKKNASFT", "details": "protein SEPT11, U3A cells"}, "[6]": {"biological_target": "proteins of U3A human fibrosarcoma cells (4462 proteins detected) (Homo sapiens, UniProt P57772)", "details": "protein EEFSEC, U3A cells"}, "[7]": {"biological_target": "proteins of U3A human fibrosarcoma cells (4462 proteins detected) (Homo sapiens, UniProt Q14974)", "sequence (Q14974 whole entry)": "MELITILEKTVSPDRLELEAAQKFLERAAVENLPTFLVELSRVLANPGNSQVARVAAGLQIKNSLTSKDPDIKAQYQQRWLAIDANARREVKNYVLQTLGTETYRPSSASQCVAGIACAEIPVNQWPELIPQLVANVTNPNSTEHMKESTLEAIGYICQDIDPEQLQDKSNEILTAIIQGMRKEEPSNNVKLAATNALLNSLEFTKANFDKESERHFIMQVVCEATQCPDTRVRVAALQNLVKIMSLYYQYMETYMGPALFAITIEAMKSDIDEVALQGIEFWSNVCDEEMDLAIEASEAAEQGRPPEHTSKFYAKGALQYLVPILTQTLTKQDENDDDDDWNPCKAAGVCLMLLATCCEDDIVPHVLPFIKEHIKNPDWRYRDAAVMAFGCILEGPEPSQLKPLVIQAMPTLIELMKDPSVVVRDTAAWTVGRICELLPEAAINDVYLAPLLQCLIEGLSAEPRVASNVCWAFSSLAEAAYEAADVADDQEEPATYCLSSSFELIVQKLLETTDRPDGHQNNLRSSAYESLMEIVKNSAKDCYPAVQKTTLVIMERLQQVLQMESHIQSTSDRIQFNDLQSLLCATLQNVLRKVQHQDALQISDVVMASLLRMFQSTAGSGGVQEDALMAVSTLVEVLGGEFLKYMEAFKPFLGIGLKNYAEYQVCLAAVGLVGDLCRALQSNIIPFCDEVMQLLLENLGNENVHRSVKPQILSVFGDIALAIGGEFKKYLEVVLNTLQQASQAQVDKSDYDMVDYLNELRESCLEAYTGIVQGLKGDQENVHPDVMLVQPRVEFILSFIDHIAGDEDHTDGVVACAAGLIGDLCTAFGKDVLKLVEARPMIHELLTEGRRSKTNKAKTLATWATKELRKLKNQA", "details": "protein KPNB1; soluble abundance after heat, U3A cells"}, "[8]": {"biological_target": "proteins of U3A human fibrosarcoma cells (4462 proteins detected) (Homo sapiens, UniProt Q5SZL2)", "sequence (Q5SZL2 whole entry)": "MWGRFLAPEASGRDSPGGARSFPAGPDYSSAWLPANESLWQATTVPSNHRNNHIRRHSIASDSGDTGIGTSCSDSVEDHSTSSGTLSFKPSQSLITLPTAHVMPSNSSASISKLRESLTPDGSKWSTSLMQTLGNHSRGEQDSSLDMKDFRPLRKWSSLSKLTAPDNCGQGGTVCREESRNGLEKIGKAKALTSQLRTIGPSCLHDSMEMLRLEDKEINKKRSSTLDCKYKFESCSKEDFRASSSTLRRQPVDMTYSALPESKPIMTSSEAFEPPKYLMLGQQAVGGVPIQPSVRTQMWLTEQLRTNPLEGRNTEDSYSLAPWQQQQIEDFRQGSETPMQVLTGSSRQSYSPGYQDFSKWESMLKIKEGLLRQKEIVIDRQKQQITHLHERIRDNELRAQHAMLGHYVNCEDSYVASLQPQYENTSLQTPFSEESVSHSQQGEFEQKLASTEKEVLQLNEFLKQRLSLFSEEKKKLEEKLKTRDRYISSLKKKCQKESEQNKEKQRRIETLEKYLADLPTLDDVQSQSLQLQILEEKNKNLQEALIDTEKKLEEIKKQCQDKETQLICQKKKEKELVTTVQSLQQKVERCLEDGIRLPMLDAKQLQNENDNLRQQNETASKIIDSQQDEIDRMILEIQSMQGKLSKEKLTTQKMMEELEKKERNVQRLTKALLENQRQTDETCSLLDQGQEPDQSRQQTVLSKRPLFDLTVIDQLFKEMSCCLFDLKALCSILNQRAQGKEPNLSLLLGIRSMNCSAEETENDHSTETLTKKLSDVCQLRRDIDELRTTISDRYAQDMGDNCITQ", "details": "protein CEP85L; U3A, 10 μM, 2 h"}, "[9]": {"biological_target": "proteins of U3A human fibrosarcoma cells (4462 proteins detected) (Homo sapiens, UniProt O00330)", "details": "protein PDHX; U3A cells"}, "[10]": {"biological_target": "proteins of U3A human fibrosarcoma cells (4462 proteins detected) (Homo sapiens, UniProt P61923)", "details": "protein COPZ1; U3A cells"}, "[11]": {"biological_target": "proteins of U3A human fibrosarcoma cells (4462 proteins detected) (Homo sapiens, UniProt P48637)", "details": "protein GSS; soluble abundance after heat, U3A cells"}, "[12]": {"biological_target": "proteins of U3A human fibrosarcoma cells (4462 proteins detected) (Homo sapiens, UniProt P06733)", "sequence (P06733 whole entry)": "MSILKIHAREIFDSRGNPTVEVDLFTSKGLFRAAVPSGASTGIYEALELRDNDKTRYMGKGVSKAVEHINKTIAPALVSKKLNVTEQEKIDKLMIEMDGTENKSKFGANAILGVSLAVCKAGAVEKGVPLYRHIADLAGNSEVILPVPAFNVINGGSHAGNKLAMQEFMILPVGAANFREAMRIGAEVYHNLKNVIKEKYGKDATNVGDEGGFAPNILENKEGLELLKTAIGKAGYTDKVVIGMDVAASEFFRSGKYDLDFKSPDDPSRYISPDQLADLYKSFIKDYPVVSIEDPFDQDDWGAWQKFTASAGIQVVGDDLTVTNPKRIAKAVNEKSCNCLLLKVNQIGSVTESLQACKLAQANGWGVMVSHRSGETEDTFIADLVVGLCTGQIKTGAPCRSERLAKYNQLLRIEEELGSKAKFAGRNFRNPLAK", "details": "protein ENO1; U3A, 10 μM, 2 h"}, "[13]": {"biological_target": "proteins of U3A human fibrosarcoma cells (4462 proteins detected) (Homo sapiens, UniProt Q96PK6)", "details": "protein RBM14; soluble abundance after heat, U3A cells"}, "[14]": {"biological_target": "proteins of U3A human fibrosarcoma cells (4462 proteins detected) (Homo sapiens, UniProt Q96EQ0)", "details": "protein SGTB, U3A cells"}, "[15]": {"biological_target": "proteins of U3A human fibrosarcoma cells (4462 proteins detected) (Homo sapiens, UniProt Q27J81)", "sequence (Q27J81 whole entry)": "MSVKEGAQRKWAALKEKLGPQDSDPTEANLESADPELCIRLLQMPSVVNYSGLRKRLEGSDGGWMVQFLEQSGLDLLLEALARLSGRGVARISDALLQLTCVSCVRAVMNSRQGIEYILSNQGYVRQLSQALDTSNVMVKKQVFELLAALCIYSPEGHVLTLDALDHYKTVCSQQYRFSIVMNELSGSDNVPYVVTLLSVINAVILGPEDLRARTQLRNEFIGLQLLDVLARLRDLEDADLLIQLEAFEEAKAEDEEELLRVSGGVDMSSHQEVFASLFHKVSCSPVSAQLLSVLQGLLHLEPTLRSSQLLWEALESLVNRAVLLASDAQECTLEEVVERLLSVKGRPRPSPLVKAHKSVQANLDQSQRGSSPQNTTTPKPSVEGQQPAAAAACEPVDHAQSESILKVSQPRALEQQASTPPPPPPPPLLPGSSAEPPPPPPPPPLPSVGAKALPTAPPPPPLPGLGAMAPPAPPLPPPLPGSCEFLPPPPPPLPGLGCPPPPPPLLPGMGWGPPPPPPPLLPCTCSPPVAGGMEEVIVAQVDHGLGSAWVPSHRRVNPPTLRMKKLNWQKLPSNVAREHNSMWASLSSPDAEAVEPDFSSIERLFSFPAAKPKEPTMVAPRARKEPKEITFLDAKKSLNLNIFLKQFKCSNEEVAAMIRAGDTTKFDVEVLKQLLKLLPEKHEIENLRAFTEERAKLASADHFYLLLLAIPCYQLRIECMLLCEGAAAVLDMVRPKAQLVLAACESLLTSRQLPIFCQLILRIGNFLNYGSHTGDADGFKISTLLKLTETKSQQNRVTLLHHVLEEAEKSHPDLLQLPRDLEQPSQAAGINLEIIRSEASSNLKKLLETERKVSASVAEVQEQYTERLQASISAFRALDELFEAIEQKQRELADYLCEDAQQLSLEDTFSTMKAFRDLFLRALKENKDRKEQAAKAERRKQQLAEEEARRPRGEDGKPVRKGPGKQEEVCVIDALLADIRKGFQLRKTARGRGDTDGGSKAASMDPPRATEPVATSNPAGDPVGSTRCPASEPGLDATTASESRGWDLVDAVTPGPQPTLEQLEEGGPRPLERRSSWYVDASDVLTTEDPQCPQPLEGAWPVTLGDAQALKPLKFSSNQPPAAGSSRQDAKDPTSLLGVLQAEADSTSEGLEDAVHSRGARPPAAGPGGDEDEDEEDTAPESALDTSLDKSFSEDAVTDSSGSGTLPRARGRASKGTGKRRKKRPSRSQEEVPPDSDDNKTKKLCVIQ", "details": "protein INF2, U3A cells"}, "[16]": {"biological_target": "proteins of U3A human fibrosarcoma cells (4462 proteins detected) (Homo sapiens, UniProt Q16775)", "details": "protein HAGH, U3A cells"}, "[17]": {"biological_target": "proteins of U3A human fibrosarcoma cells (4462 proteins detected) (Homo sapiens, UniProt Q9Y5J1)", "details": "protein UTP18; U3A cells"}, "[18]": {"biological_target": "proteins of U3A human fibrosarcoma cells (4462 proteins detected) (Homo sapiens, UniProt Q4J6C6)", "details": "protein PREPL, U3A cells"}, "[19]": {"biological_target": "proteins of U3A human fibrosarcoma cells (4462 proteins detected) (Homo sapiens, UniProt Q96FF9)", "sequence (Q96FF9 whole entry)": "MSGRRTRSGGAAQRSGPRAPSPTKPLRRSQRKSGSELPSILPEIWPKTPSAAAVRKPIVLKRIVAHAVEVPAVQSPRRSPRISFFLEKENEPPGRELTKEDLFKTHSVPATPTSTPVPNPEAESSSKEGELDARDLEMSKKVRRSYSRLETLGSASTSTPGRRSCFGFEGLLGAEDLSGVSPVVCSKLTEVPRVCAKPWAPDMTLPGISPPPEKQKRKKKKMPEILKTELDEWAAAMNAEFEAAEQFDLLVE", "details": "protein CDCA5; U3A cells"}, "[20]": {"biological_target": "proteins of U3A human fibrosarcoma cells (4462 proteins detected) (Homo sapiens, UniProt O00629)", "sequence (O00629 whole entry)": "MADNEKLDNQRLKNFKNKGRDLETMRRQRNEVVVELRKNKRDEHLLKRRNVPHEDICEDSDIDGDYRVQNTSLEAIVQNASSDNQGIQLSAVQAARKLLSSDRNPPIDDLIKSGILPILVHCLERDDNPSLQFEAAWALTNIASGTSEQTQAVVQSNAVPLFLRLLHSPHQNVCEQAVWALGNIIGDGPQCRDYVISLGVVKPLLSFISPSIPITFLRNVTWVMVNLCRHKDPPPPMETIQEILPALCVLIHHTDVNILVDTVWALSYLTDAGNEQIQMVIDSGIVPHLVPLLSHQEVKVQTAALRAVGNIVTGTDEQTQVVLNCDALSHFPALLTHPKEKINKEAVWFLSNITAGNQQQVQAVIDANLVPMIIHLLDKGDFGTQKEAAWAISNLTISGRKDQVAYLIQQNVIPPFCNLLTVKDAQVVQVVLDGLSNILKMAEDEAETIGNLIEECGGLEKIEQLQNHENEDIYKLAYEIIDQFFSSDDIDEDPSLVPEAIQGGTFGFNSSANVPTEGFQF", "details": "protein KPNA4; U3A cells"}, "[21]": {"biological_target": "proteins of U3A human fibrosarcoma cells (4462 proteins detected) (Homo sapiens, UniProt Q9Y6H1)", "details": "protein CHCHD2; CHCHD2P9; U3A, 10 μM, 2 h"}, "[22]": {"biological_target": "proteins of U3A human fibrosarcoma cells (4462 proteins detected) (Homo sapiens, UniProt Q92692)", "details": "protein PVRL2; U3A cells"}, "[23]": {"biological_target": "proteins of U3A human fibrosarcoma cells (4462 proteins detected) (Homo sapiens, UniProt Q9NYZ3)", "details": "protein GTSE1; U3A cells"}, "[24]": {"biological_target": "proteins of U3A human fibrosarcoma cells (4462 proteins detected) (Homo sapiens, UniProt Q96Q89)", "details": "protein KIF20B; U3A cells"}, "[25]": {"biological_target": "proteins of U3A human fibrosarcoma cells (4462 proteins detected) (Homo sapiens, UniProt P13693)", "sequence (P13693 whole entry)": "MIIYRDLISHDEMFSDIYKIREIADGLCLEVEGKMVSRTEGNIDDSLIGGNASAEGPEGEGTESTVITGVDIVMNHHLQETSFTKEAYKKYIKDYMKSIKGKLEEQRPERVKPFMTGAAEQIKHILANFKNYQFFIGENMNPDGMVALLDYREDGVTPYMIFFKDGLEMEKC", "details": "protein TPT1, U3A cells"}, "[26]": {"biological_target": "proteins of U3A human fibrosarcoma cells (4462 proteins detected) (Homo sapiens, UniProt Q96PE7)", "details": "protein MCEE; U3A, 10 μM, 2 h"}, "[27]": {"biological_target": "proteins of U3A human fibrosarcoma cells (4462 proteins detected) (Homo sapiens, UniProt P21266)", "details": "protein GSTM3, U3A cells"}, "[28]": {"biological_target": "proteins of U3A human fibrosarcoma cells (4462 proteins detected) (Homo sapiens, UniProt Q13541)", "details": "protein EIF4EBP1, U3A cells"}, "[29]": {"biological_target": "proteins of U3A human fibrosarcoma cells (4462 proteins detected) (Homo sapiens, UniProt Q8IYB8)", "details": "protein SUPV3L1; U3A cells"}, "[30]": {"biological_target": "proteins of U3A human fibrosarcoma cells (4462 proteins detected) (Homo sapiens, UniProt Q92572)", "sequence (Q92572 whole entry)": "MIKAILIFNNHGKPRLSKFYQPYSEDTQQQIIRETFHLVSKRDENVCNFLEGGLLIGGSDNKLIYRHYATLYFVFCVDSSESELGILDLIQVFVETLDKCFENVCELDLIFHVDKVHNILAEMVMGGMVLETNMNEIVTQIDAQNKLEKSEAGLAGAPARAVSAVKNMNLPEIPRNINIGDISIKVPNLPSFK", "details": "protein AP3S1; U3A cells"}},
  "data": [
    {"smiles": "CCc1nc(N)nc(N)c1-c1ccc(Cl)cc1", "note": "[pyrimethamine]", "values": [
      {"measurement": "Log2 (PYR/DMSO)", "setting": "[1]", "value": 0.14},
      {"measurement": "Log2 (PYR/DMSO)", "setting": "[2]", "value": 0.15},
      {"measurement": "Log2 (PYR/DMSO)", "setting": "[3]", "value": 0.22},
      {"measurement": "Log2 (PYR/DMSO)", "setting": "[4]", "value": 0.18},
      {"measurement": "Log2 (PYR/DMSO)", "setting": "[5]", "value": -0.04},
      {"measurement": "Log2 (PYR/DMSO)", "setting": "[6]", "value": -0.04},
      {"measurement": "Log2 (PYR/DMSO)", "setting": "[7]", "value": 0.14},
      {"measurement": "Log2 (PYR/DMSO), CEP85L", "setting": "[8]", "value": -0.24},
      {"measurement": "Log2 (PYR/DMSO)", "setting": "[9]", "value": 0.19},
      {"measurement": "Log2 (PYR/DMSO)", "setting": "[10]", "value": 0.18},
      {"measurement": "Log2 (PYR/DMSO)", "setting": "[11]", "value": 0.14},
      {"measurement": "Log2 (PYR/DMSO), ENO1", "setting": "[12]", "value": -0.17},
      {"measurement": "Log2 (PYR/DMSO)", "setting": "[13]", "value": 0.14},
      {"measurement": "Log2 (PYR/DMSO)", "setting": "[14]", "value": -0.04},
      {"measurement": "Log2 (PYR/DMSO)", "setting": "[15]", "value": -0.04},
      {"measurement": "Log2 (PYR/DMSO)", "setting": "[16]", "value": -0.04},
      {"measurement": "Log2 (PYR/DMSO)", "setting": "[17]", "value": 0.21},
      {"measurement": "Log2 (PYR/DMSO)", "setting": "[18]", "value": -0.04},
      {"measurement": "Log2 (PYR/DMSO)", "setting": "[19]", "value": 0.19},
      {"measurement": "Log2 (PYR/DMSO)", "setting": "[20]", "value": 0.22},
      {"measurement": "Log2 (PYR/DMSO), CHCHD2; CHCHD2P9", "setting": "[21]", "value": 0.36},
      {"measurement": "Log2 (PYR/DMSO)", "setting": "[22]", "value": 0.17},
      {"measurement": "Log2 (PYR/DMSO)", "setting": "[23]", "value": 0.20},
      {"measurement": "Log2 (PYR/DMSO)", "setting": "[24]", "value": 0.23},
      {"measurement": "Log2 (PYR/DMSO)", "setting": "[25]", "value": -0.05},
      {"measurement": "Log2 (PYR/DMSO), MCEE", "setting": "[26]", "value": 0.25},
      {"measurement": "Log2 (PYR/DMSO)", "setting": "[27]", "value": -0.04},
      {"measurement": "Log2 (PYR/DMSO)", "setting": "[28]", "value": -0.04},
      {"measurement": "Log2 (PYR/DMSO)", "setting": "[29]", "value": 0.19},
      {"measurement": "Log2 (PYR/DMSO)", "setting": "[30]", "value": 0.18}
    ]}
  ]
}
